This note sets out measurements from US20170260178A1 (SPERO GYRASE, INC., priority 2012, published 2017).

For assay [1], the system named is H. influenzae (ATCC 49247). As to the kind of experiment: Bacterial assay: MIC against H. influenzae. It is filed as cell-based. As to conditions: Haemophilus influenzae, ATCC49247; H. influenzae ATCC 49247; read-out: minimal inhibitory concentration (MIC).
The subject of assay [2] is S. pneumoniae ATCC6301. As to the kind of experiment: Mouse survival model (lung infection). Format: in vivo. Conditions: CD-1 mice. How it is done: Anaesthetised female CD-1 mice (18-22 g) were inoculated intranasally with approximately 10^6 cfus of S. pneumoniae ATCC6301 prepared from a fresh overnight culture by placing 50 μl of inoculum on the nares and allowing the mice to inhale. Compounds are administered as indicated at 24, 48 and 72 hours post inoculation and the mice monitored for survival for seven or nine days after infection. […] Similarly, when Compound 17 was dosed IV at 30 mg/kg 90% of mice survived at day seven.

In assay [3] the test system is S. aureus ATCC29213. As to the kind of experiment: Rat thigh infection model. It is filed as in vivo. Conditions: neutropenic Sprague-Dawley rats, IV ≦40 mg/kg. The procedure: The thighs of Sprague-Dawley rats (250-275 g), rendered neutropenic by the intraperitoneal administration of cyclophosphamide (75 mg/kg on days −4 and −1), were inoculated with approximately 1×10^7 cfus of S. aureus ATCC29213.
Compounds were administered as indicated 2 hours later and the cfus enumerated at various times post dosing by harvesting the thighs, homogenising in PBS on ice and plating serial dilutions onto CLED agar plates for growth at 37° C. and colony counting.

Assay [4] concerns S. aureus (ATCC 29213). Put plainly: Bacterial assay: MIC against S. aureus. It is filed as cell-based, Staphylococcus aureus. As to conditions: Staphylococcus aureus, ATCC29213, read-out: minimal inhibitory concentration (MIC).
For assay [5], the system named is S. pneumoniae ATCC6301. Put plainly: Mouse lung infection model (Gram positive). Format: in vivo. Conditions: CD-1 mice, IV 30 mg/kg, cfus at 48 hours post inoculation. How it is done: Anaesthetised female CD-1 mice (18-22 g) were inoculated intranasally with approximately 10^6 cfus of S. pneumoniae ATCC6301 prepared from a fresh overnight culture by placing 50 μl of inoculum on the nares and allowing the mice to inhale. Compounds were administered as indicated at 24 hours post inoculation and the cfus enumerated at 48 hours post inoculation by harvesting the lungs, homogenising in PBS on ice and plating serial dilutions onto TSA+5% blood plates for growth overnight at 37° C. and colony counting.

In assay [6] the test system is S. pyogenes (ATCC 51339). As to the kind of experiment: Bacterial assay: MIC against S. pyogenes. Format: cell-based, Streptococcus pyogenes. Conditions: Streptococcus pyogenes, ATCC51339, read-out: minimal inhibitory concentration (MIC).

`CCNC(=O)Nc1nc2cc(-c3cnc(C(C)(C)O)nc3)cc(-c3ccccn3)c2s1` [Compound 1, 1-ethyl-3-[5-[2-(1-hydroxy-1-methyl-ethyl)pyrimidin-5-yl]-7-(2-pyridyl)-1,3-benzothiazol-2-yl]urea]: the MIC in assay [1] was not above 2 mg/L; in assay [4], not above 1 mg/L; in assay [6], not above 1 mg/L. The compound also had a mice surviving in assay [2] (IV 10 mg/kg, at seven or nine days) of 80%. Besides, the “log drop in colony forming units compared to the control” value in assay [3] and in assay [5] was not below 3 log each time.
Take `CC(=O)NC[C@H]1CN(c2ccc(N3CCOCC3)c(F)c2)C(=O)O1` [Linezolid, reference compound]: the survival outcome in assay [2] (10 mg/kg) is on record as “dead by day six”.
In the case of `CCNC(=O)Nc1nc2cc(-c3cnc(C(C)O)nc3)cc(-c3ccccn3)c2s1` (centres unmarked) [Compound 17, 1-ethyl-3-[5-[2-(1-hydroxyethyl)pyrimidin-5-yl]-7-(2-pyridyl)-1,3-benzothiazol-2-yl]urea], the MIC in assay [1] is not above 2 mg/L; in assay [4] it was not above 1 mg/L; in assay [6] it was not above 1 mg/L. In assay [2] (IV 30 mg/kg, at day seven), the mice survived amounted to 90%.
